# Reference: EP4574811A1, “CRYSTALLINE FORMS OF ELACESTRANT DIHYDROCHLORIDE” (SANDOZ AG, priority 2023, dated 2025)
# Counter-ions that a name gives are not always drawn.
# Test: Dissolution testing (aqueous solubility in water at 24°C)
# Type: physicochemical
# Conditions: dihydrochloride; for Aqueous solubility (concentration of clear solution): in water at 24 °C; for stability of the supersaturated solution: 51.9 mg/ml solution in water at 24 °C
# Protocol: Aqueous solubility was determined dissolution experiments of Elacestrant dihydrochloride of the present invention in water at 24°C.
SMILES,Aqueous solubility (concentration of clear solution),Aqueous solubility (concentration of clear solution) (listed as form A),stability of the supersaturated solution,stability of the supersaturated solution (listed as form B)
"CCNCCc1ccc(CN(CC)c2cc(OC)ccc2[C@@H]2CCc3cc(O)ccc3C2)cc1 [Form 1, (6R)-6-(2-(ethyl((4-(2-(ethylamino)ethyl)phenyl)-methylamino)-4-methoxyphenyl)-5,6,7,8-Tetrahydronaphthalen-2-oldihydrochloride, reference compound]","less than 9,2 mg/ml",,,
"CCNCCc1ccc(CN(CC)c2cc(OC)ccc2[C@@H]2CCc3cc(O)ccc3C2)cc1 [Form A, (6R)-6-(2-(ethyl((4-(2-(ethylamino)ethyl)phenyl)-methylamino)-4-methoxyphenyl)-5,6,7,8-Tetrahydronaphthalen-2-oldihydrochloride]","34,5 mg/ml",about 34.5 mg/ml,,
"CCNCCc1ccc(CN(CC)c2cc(OC)ccc2[C@@H]2CCc3cc(O)ccc3C2)cc1 [Form B, (6R)-6-(2-(ethyl((4-(2-(ethylamino)ethyl)phenyl)-methylamino)-4-methoxyphenyl)-5,6,7,8-Tetrahydronaphthalen-2-oldihydrochloride]",51.9 mg/mL,,instable,precipitation of Elacestrant dihydrochloride was occurred
